The target of data set [1] is T1, ERRγ (Homo sapiens, UniProt P62508).
T1 construct: purchased Life Technologies
T1 sequence (P62508 233-457 limits assumed): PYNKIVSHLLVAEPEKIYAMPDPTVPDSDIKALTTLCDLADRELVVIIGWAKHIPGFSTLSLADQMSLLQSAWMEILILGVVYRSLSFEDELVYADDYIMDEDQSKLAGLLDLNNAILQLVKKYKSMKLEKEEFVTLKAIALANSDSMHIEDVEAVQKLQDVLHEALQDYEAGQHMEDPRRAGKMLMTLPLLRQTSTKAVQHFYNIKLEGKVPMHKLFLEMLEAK
Nature of the data set: TR-FRET (LanthaScreen) ERRγ binding assay. The following applies: Table 1 screening, 2-fold serial dilution from 10 μM; for pIC50: read-out: ERRγ, IC50 (binding inhibition of ERRγ binding activity). How it is done: Initials creening was conducted using a well established TR-FRET based ERRγ binding assay as described in the Experimental section at a concentration of 10 μM. Serial dilutions of the synthesized compounds were used to calculate IC50 values for the binding affinity with ERRγ.
ERRγ binding assay was conducted with Lantascreen assay system (Life Technologies, Grand Island, NY, USA), which was based on TR-FRET, followed by manufacturer’s instruction. Briefly, compounds were serially diluted with 2-fold staring from 10 μM and 10 μL of each diluent was added in 384 well plate. Then, GST-conjugated ERRγ LBD (ligand-binding domain) was added to be 5 nM. Next, the mixture of fluorescien-conjugated coactivator PGC1a (final concentration to be 500 nM) and Tb-a-GST antibody (final concentration to be 5 nM) was added. The reaction mixture was incubated at rt in dark state for 1 h.

In data set [2] the target is T2, ERRγ (Homo sapiens, UniProt P62508).
T2 sequence (P62508 233-458 limits assumed): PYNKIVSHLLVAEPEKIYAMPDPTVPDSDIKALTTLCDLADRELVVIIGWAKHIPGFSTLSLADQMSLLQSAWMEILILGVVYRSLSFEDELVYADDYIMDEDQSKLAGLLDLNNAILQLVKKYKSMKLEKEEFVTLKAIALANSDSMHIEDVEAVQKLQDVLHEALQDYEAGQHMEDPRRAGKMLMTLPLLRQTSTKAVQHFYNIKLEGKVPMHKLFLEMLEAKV
Nature of the data set: ERRγ functional assay: GAL4-ERRγ luciferase reporter gene in AD293 cells. The following applies: for ERRγ functional activity in the cellular system (in words): 10 μM, reporter-gene assay, compared with control ligand 4; for inhibition at 10 µM: AD293, 24 h, screening concentration of 10 μM, read-out: transcriptional repression. Format: cell-based. How it is done:
Along with the binding assay campaign, functional activity was determined in order to validate the utility of the binding affinity in a cellular context as described in the Experimental.
Figure 2 Cell based reporter-gene assay screening of 16 analogs ERRγ binding activity in cell was measured by luciferase activity using co-transfection system with GAL4-ERRγ and pFR-luciferase reporter gene.
AD293 cells were cultured in Dulbecco’ modified Eagle medium (DMEM) High glucose supplemented with 0.5% FBS (Hyclone, Logan, UT, USA). After 24 h, culture media was changed with DMEM High glucose containing 10% FBS. DNA constructs, which includes pCMX-Gal4-ERRγ, pFR-luciferase reporter plasmid, pCMV-β-gal were transiently transfected into AD293 cells using TransIT-LT1 transfection reagent (Mirus, Madison, WI, USA) for 24 h. Then, transfected cells were treated with compounds for 24 h and harvested for detection of luciferase activity and β-gal activity. All cells were incubated at 37 °C under 5% CO2 in a humidified incubator [5].
A general note: Reporter assays use an easily measured gene product as a stand-in for the process of interest.

Data set [3] has as its target T3, CYP1A2 (Homo sapiens, UniProt P05177).
T3 sequence (P05177 1-516): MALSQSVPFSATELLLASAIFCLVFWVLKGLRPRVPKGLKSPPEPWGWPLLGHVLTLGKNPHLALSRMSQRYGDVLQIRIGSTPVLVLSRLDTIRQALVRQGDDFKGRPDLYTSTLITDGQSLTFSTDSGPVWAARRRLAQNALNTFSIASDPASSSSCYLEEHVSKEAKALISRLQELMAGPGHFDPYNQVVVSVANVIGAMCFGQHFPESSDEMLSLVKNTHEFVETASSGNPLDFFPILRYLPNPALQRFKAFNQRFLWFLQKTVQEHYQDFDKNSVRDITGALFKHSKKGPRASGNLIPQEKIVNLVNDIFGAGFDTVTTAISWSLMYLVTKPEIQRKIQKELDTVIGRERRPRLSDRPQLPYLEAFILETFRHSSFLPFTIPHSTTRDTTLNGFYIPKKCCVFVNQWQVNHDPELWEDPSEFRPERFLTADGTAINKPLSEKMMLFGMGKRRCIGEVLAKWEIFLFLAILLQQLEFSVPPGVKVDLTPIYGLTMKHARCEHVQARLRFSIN
Put plainly: CYP inhibition assay, cocktail, human liver microsomes (phenacetin O-deethylase). Format: in vitro ADME. The following applies: 10 μM, activity in presence of inhibitor as % of control.

Data set [4] addresses CYP2C9 (Homo sapiens, UniProt P11712). Put plainly: CYP inhibition assay, cocktail, human liver microsomes (tolbutamide 4-hydroxylase). Format: in vitro ADME. The following applies: 10 μM, human liver microsomes; activity in presence of inhibitor as % of control. (In general: Liver microsomes are vesicles of endoplasmic reticulum, rich in cytochrome P450 enzymes.)
Data set [5] addresses CYP2C19 (Homo sapiens, UniProt P33261). Put plainly: CYP inhibition assay, cocktail, human liver microsomes (S-mephenytoin 4-hydroxylase). The conditions noted are these: 10 μM, activity in presence of inhibitor as % of control. Format: in vitro ADME.
In data set [6] the target is CYP2D6 (Homo sapiens, UniProt P10635). Nature of the data set: CYP inhibition assay, cocktail, human liver microsomes (dextromethorphan O-demethylase). It is filed as in vitro ADME. The following applies: 10 μM, activity in presence of inhibitor as % of control.
For data set [7], the system named is CYP3A. Put plainly: CYP inhibition assay, cocktail, human liver microsomes (midazolam 1'-hydroxylase). Format: in vitro ADME. The conditions noted are these: 10 μM, activity in presence of inhibitor as % of control.
The nature of data set [8]: Metabolic stability assay in liver microsomes (human). Format: in vitro ADME. The conditions noted are these: 1 μM, 30 min, 37 °C, NADPH. How it is done:
(§1) The metabolic stability assay was performed by incubation of human and selected animal liver microsomes (most often dog, rat and mouse), at 37 °C with a test compound at a final concentration of 1 μM, in the presence of 0.5 mg/mL microsomal protein and NADPH regeneration system, in a total volume of 100 μL of 100 mM phosphate buffer, pH 7.4. The incubation was started by the addition of NADPH regeneration system and terminated with adding 40 μL of ice-cold acetonitrile at 0 and 30 min. […] Incubations terminated prior to addition of NADPH regeneration system (time point 0 min) were used as standards, defined as 100%. Percent of the parent compound remaining was calculated by comparing peak areas.

The nature of data set [9]: Metabolic stability assay in liver microsomes (dog). The conditions noted are these: 1 μM, 30 min, 37 °C, NADPH. Format: in vitro ADME. How it is done:
as §1

A short description of data set [10]: Metabolic stability assay in liver microsomes (rat). It is filed as in vitro ADME. The following applies: 1 μM, 30 min, 37 °C, NADPH. As to the method:
as §1

Data set [11] in a line: Metabolic stability assay in liver microsomes (mouse). The following applies: 1 μM, 30 min, 37 °C, NADPH. Format: in vitro ADME. How it is done: as §1

SMILES strings stand for the structures. pIC50: −log10 of the molar value.

Sequence of CYP2C9 (P11712 whole entry): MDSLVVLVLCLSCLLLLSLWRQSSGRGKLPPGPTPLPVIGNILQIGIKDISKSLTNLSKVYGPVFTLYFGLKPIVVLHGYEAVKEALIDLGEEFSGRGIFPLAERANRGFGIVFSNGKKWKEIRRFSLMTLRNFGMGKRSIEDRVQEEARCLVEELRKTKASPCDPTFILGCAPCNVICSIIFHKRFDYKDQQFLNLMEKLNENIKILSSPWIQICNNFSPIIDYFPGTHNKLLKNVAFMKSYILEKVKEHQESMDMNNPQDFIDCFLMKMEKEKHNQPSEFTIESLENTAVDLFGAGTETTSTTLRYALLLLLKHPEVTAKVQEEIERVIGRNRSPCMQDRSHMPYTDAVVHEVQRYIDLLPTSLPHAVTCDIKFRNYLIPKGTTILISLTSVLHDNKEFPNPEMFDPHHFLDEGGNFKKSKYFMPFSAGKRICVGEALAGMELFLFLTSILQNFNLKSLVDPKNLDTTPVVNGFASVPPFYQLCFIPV
Sequence of CYP2D6 (P10635 whole entry): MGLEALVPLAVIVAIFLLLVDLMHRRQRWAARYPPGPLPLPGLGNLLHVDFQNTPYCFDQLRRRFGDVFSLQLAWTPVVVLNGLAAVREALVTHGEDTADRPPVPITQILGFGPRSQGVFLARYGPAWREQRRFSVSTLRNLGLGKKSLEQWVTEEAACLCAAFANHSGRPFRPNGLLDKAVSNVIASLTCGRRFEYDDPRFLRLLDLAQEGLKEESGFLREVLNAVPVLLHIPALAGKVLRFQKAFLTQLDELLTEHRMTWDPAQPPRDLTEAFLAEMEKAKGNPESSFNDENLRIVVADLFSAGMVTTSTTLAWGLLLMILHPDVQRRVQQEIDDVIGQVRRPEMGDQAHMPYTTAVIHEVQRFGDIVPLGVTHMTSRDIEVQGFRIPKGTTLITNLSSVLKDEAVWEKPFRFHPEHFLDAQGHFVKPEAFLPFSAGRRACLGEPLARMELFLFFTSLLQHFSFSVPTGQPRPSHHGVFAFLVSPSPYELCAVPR
Sequence of CYP2C19 (P33261 whole entry): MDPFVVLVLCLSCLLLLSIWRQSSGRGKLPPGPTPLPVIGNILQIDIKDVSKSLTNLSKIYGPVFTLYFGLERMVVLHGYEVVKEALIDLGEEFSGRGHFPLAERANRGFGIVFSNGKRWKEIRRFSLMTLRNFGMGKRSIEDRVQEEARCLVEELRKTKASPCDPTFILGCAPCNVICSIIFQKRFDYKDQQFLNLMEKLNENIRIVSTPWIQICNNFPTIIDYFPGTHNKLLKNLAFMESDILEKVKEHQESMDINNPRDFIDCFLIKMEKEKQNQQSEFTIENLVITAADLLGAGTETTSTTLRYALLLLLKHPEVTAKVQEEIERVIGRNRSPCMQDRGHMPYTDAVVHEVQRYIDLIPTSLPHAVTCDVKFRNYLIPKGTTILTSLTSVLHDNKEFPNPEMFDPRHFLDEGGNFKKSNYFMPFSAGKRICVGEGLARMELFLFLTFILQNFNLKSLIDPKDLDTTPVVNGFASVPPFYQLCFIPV

For the compound `CN(C)CCOc1ccc(/C(=C(/CCCO)c2ccnc(F)c2)c2ccc(O)cc2)cc1` [Compound 15e, (Z)-4-(1-(4-(2-(Dimethylamino)ethoxy)phenyl)-2-(2-fluoropyridin-4-yl)-5-hydroxypent-1-en-1-yl)phenol], the pIC50 (usually −log10 of the IC50, conventionally taken in molar units) in data set [1] was 5.27. The “ERRγ functional activity in the cellular system (in words)” value (shortened to “ERRγ functional activity”) in [2] is on record as “comparable regression of the ERRγ transcriptional activity”.
For `CN(C)CCOc1ccc(/C(=C(/CCCO)c2ccc3ccncc3c2)c2ccc(O)cc2)cc1` [Compound 15j, (Z)-4-(1-(4-(2-(Dimethylamino)ethoxy)phenyl)-5-hydroxy-2-(isoquinolin-7-yl)pent-1-en-1-yl)phenol], the pIC50 in [1] was 5.33.
`CN(C)CCOc1ccc(/C(=C(/CCCO)c2cccnc2)c2ccc(O)cc2)cc1` [Compound 15d, (Z)-4-(1-(4-(2-(Dimethylamino)ethoxy)phenyl)-5-hydroxy-2-(pyridin-3-yl)pent-1-en-1-yl)phenol]: the pIC50 in data set [1] is 5.51.
Consider `CN(C)CCOc1ccc(/C(=C/CCCO)c2ccc(O)cc2)cc1` [Compound 15a, (E)-4-(1-(4-(2-(Dimethylamino)ethoxy)phenyl)-5-hydroxypent-1-en-1-yl)phenol], for which the pIC50 in data set [1] was under 5.00. Also, the inhibition at 10 µM in [2] was about 0%.
As for `COCCC/C(=C(\c1ccc(O)cc1)c1ccc(OCCN(C)C)cc1)c1cccnc1` [Compound 13a, (Z)-4-(1-(4-(2-(Dimethylamino)ethoxy)phenyl)-5-methoxy-2-(pyridin-3-yl)pent-1-en-1-yl)phenol], in data set [1], the pIC50 is 6.00. The “ERRγ functional activity” value in [2] is listed as “comparable regression of the ERRγ transcriptional activity”.
Turning to `COCCC/C(=C(\c1ccc(O)cc1)c1ccc(OCCN(C)C)cc1)c1ccncc1` [Compound 13b, (Z)-4-(1-(4-(2-(Dimethylamino)ethoxy)phenyl)-5-methoxy-2-(pyridin-4-yl)pent-1-en-1-yl)phenol], the pIC50 in data set [1] is under 5.00. Also, the inhibition at 10 µM in [2] is about 50%.
The matching figures for `CN(C)CCOc1ccc(/C(=C(/CCCO)c2ccc3nccn3c2)c2ccc(O)cc2)cc1` [Compound 15i, (Z)-4-(1-(4-(2-(Dimethylamino)ethoxy)phenyl)-5-hydroxy-2-(imidazo[1,2-a]pyridin-6-yl)pent-1-en-1-yl)phenol]: under 5.00 and about 0%.
Take `COCCC/C(=C(\c1ccc(O)cc1)c1ccc(OCCN(C)C)cc1)c1cnn(C)c1` [Compound 13c, (Z)-4-(1-(4-(2-(Dimethylamino)ethoxy)phenyl)-5-methoxy-2-(1-methyl-1H-pyrazol-4-yl)pent-1-en-1-yl)-phenol]: the negative logarithm of the IC50 (pIC50) in [1] is under 5.00. In addition, the inhibition at 10 µM in data set [2] is about 50%.
In the case of `COCCC/C(=C(\c1ccc(O)cc1)c1ccc(OCCN(C)C)c(C(F)(F)F)c1)c1cccnc1` [Compound 16], in data set [1], the “ERRγ, IC50 (binding inhibition of ERRγ binding activity)” value is recorded as “no affinity” and the pIC50 was under 5.00. Moreover, the inhibition at 10 µM in [2] is about 0%.
For `COCCC/C(=C(\c1ccc(O)cc1)c1ccc(OCCN(C)C)cc1)c1ccc(C(C)C)nc1` [Compound 17, (Z)-4-(1-(4-(2-(Dimethylamino)ethoxy)phenyl)-2-(6-isopropylpyridin-3-yl)-5-methoxypent-1-en-1-yl)phenol], in [1], the pIC50 was under 5.00. Besides, the inhibition at 10 µM in data set [2] is about 50%.
For the compound `CN(C)CCOc1ccc(/C(=C(/CCCO)c2ccc(O)cc2)c2ccc(O)cc2)cc1` [Compound 15b, (Z)-4,4′-(1-(4-(2-(Dimethylamino)ethoxy)phenyl)-5-hydroxypent-1-ene-1,2-diyl)diphenol], in data set [1], the pIC50 is 5.63.
Turning to `COc1ccc(/C(CCCO)=C(/c2ccc(O)cc2)c2ccc(OCCN(C)C)cc2)cn1` [Compound 15c, (Z)-4-(1-(4-(2-(Dimethylamino)ethoxy)phenyl)-5-hydroxy-2-(6-methoxypyridin-3-yl)pent-1-en-1-yl)phenol], in [1], the pIC50 was under 5.00. For the same compound, the inhibition at 10 µM in data set [2] is about 50%.
Regarding `CN(C)CCOc1ccc(/C(=C(/CCCO)c2ccccc2)c2ccc(O)cc2)cc1` [Compound 4, GSK5182, reference compound], in [3], the “CYP Inhibition (% of Control), 1A2” value is given as 84 % of Control. Besides, the “CYP Inhibition (% of Control), 2C9” value in data set [4] is reported as 73 % of Control. Further, in data set [5], the “CYP Inhibition (% of Control), 2C19” value is on record as 78 % of Control. In addition, the “CYP Inhibition (% of Control), 2D6” value in [6] is recorded as 82 % of Control. The “CYP Inhibition (% of Control), 3A4” value in [7] was 83 % of Control. In addition, the “MS (%), Human (percent of parent compound remaining)” value in data set [8] is 43%. For the same compound, the “MS (%), Dog (percent of parent compound remaining)” value in data set [9] was “less than 10%”. Also, the “MS (%), Rat (percent of parent compound remaining)” value in data set [10] is 26%. In addition, the “MS (%), Mouse (percent of parent compound remaining)” value in data set [11] is reported as “less than 10%”.
Regarding `CN(C)CCOc1ccc(/C(=C(/CCCO)c2ccc(N3CCOCC3)nc2)c2ccc(O)cc2)cc1` [Compound 15f, (Z)-4-(1-(4-(2-(Dimethylamino)ethoxy)phenyl)-5-hydroxy-2-(6-morpholinopyridin-3-yl)pent-1-en-1-yl)phenol], the pIC50 in data set [1] was under 5.00. Further, the “ERRγ functional activity” value in data set [2] is listed as “partial agonistic activity”.

The values are drawn from paper PMC6273807, “Identification of Selective ERRγ Inverse Agonists” (Molecules, 2016).
